Measured values from US6362134B1, “Herbicidal 1,2,4,6-thiatriazines” (Syngenta Investment Corporation, priority 1996, dated 2002).

Key:
Format in all cases: in vivo
[1] = system: Avena; test: Herbicidal action before emergence of the plants (pre-emergent action); details: 2000 g of active substance/ha, sprayed immediately after sowing, evaluated after 3 weeks, ratings scale of nine levels (1=complete damage, 9=no action)
Description: (§1) Monocotyledon and dicotyledon test plants are sown in standard soil in plastic pots. Immediately after sowing, the test substances are sprayed on (500 l of water/ha) in an aqueous suspension prepared from a 25% wettable powder (Example F3, b)), corresponding to a dosage of 2000 g of active substance/ha. The test plants are then grown under optimum conditions in a greenhouse. After a test period of 3 weeks, the test is evaluated with a ratings scale of nine levels (1=complete damage, 9=no action). Ratings of 1 to 4 (in particular 1 to 3) mean a good to very good herbicidal action.
(§2) Test plants: Avena, Setaria, Sinapis, Stellaria

[2] = system: Setaria; test: as above; set-up: key: 1=complete damage; 9=no action; Ratings of 1 to 4 (in particular 1 to 3) mean a good to very good herbicidal action; details: 2000 g of active substance/ha, sprayed immediately after sowing, evaluated after 3 weeks, ratings scale of nine levels
Description: as §1, §2

[3] = system: Sinapis; test: as above; set-up: key: 1=complete damage; 9=no action; Ratings of 1 to 4 (in particular 1 to 3) mean a good to very good herbicidal action; details: 2000 g of active substance/ha, sprayed immediately after sowing, evaluated after 3 weeks, ratings scale of nine levels
Description: as §1, §2

[4] = system: Stellaria; test: as above; set-up: key: 1=complete damage; 9=no action; Ratings of 1 to 4 (in particular 1 to 3) mean a good to very good herbicidal action; details: 2000 g of active substance/ha, sprayed immediately after sowing, evaluated after 3 weeks, ratings scale of nine levels
Description: as §1, §2

[5] = system: Sinapis; test: Post-emergent herbicidal action (contact herbicide); set-up: key: 1=complete damage; 9=no action; Ratings of 1 to 4 (in particular 1 to 3) mean a good to very good herbicidal action; details: 2000 g of active substance/ha, sprayed in the 4- to 6-leaf stage, evaluated after about 18 days, ratings scale 1-9
Description: (§3) Monocotyledon and dicotyledon test plants are grown in plastic pots with standard soil in a greenhouse and, in the 4- to 6-leaf stage, are sprayed with an aqueous suspension of the test substances of the formula 1, prepared from a 25% wettable power (Example F3, b)), corresponding to a dosage of 2000 g of active substance/ha (500 l of water/ha). The test plants are then grown further in the greenhouse under optimum conditions. After a test period of about 18 days, the test is evaluated with a ratings scale of 9 levels (1=complete damage, 9=no action). Ratings of 1 to 4 (in particular 1 to 3) mean a good to very good herbicidal action.
(§4) Test plants: Sinapis, Stellaria

[6] = system: Stellaria; test: as above; set-up: key: 1=complete damage; 9=no action; Ratings of 1 to 4 (in particular 1 to 3) mean a good to very good herbicidal action; details: 2000 g of active substance/ha, sprayed in the 4- to 6-leaf stage, evaluated after about 18 days, ratings scale 1-9
Description: as §3, §4

SMILES | Pre-emergent action, rating, Avena [1] | Pre-emergent action, rating, Setaria [2] | Pre-emergent action, rating, Sinapis [3] | Pre-emergent action, rating, Stellaria [4] | Post-emergent action, rating, Sinapis [5] | Post-emergent action, rating, Stellaria [6]
CC1(C)CCC(OS2=NC(N)=NC(Oc3c(F)c(F)c(F)c(F)c3F)=N2)CC1 (stereo not drawn) [5.52] | 4 | 2 | 1 | 1 | 2 | 2
CC1CC(OS2=NC(N)=NC(Oc3c(F)c(F)c(F)c(F)c3F)=N2)CC(C)(C)C1 (stereo not drawn) [5.78] | 3 | 2 | 2 | 1 | 2 | 3
CC1CC(C)CC(OS2=NC(N)=NC(Oc3c(F)c(F)c(F)c(F)c3F)=N2)C1 (stereo not drawn) [5.120] | 4 | 2 | 1 | 1 | 2 | 3
CC(C)(C)C1CCC(OS2=NC(N)=NC(Oc3c(F)c(F)c(F)c(F)c3F)=N2)CC1 (stereo not drawn) [5.127] | 4 | 2 | 1 | 1 | 2 | 3
CC1(C)CCCC(OS2=NC(N)=NC(Oc3c(F)c(F)c(F)c(F)c3F)=N2)C1 (stereo not drawn) [5.131] | 4 | 2 | 1 | 1 | 1 | 3
NC1=NC(Oc2c(F)c(F)c(F)c(F)c2F)=NS(OC2CCCCCCC2)=N1 (stereo not drawn) [5.176] | 4 | 2 | 1 | 1 | 2 | 2
C[Si](C)(C)COS1=NC(N)=NC(Oc2c(F)c(F)c(F)c(F)c2F)=N1 (stereo not drawn) [5.321] | 3 | 1 | 1 | 1 | 2 | 2
CC1CCC(OS2=NC(N)=NC(Oc3c(F)c(F)c(F)c(F)c3F)=N2)CC1 (stereo not drawn) [5.326] | 4 | 4 | 1 | 1 | 2 | 4
CC(OS1=NC(N)=NC(Oc2c(F)c(F)c(F)c(F)c2F)=N1)[Si](C)(C)C (stereo not drawn) [5.329] | 2 | 1 | 1 | 1 | 1 | 5
CCCC(CC)OS1=NC(N)=NC(Oc2c(F)c(F)c(F)c(F)c2F)=N1 (stereo not drawn) [5.332] | 3 | 1 | 1 | 1 | 1 | 2
CCC1CCCCN1S1=NC(N)=NC(Oc2c(F)c(F)c(F)c(F)c2F)=N1 (stereo not drawn) [6.30] | 3 | 2 | 1 | 1 | 2 | 3
CC1(C)CCCN(S2=NC(N)=NC(Oc3c(F)c(F)c(F)c(F)c3F)=N2)C1 (stereo not drawn) [6.34] | 3 | 1 | 1 | 1 | 2 | 2
NC1=NC(Oc2c(F)c(F)c(F)c(F)c2F)=NS(N2CCCC3CCCCC32)=N1 (stereo not drawn) [6.37] | 3 | 2 | 1 | 1 | 3 | 2
NC1=NS(N2CCCCCC2)=NC(Oc2c(F)c(F)cc(F)c2F)=N1 (stereo not drawn) [6.89] | 2 | 2 | 1 | 1 | 2 | 3
CC1CC(C)CN(S2=NC(N)=NC(Oc3c(F)c(F)c(F)c(F)c3F)=N2)C1 (stereo not drawn) [6.124] | 3 | 1 | 1 | 1 | 2 | 3
CC1(C)CCCN(S2=NC(N)=NC(Oc3cc(F)ccc3F)=N2)C1 (stereo not drawn) [6.129] | 4 | 4 | 1 | 1 | 2 | 3
NC1=NC(Oc2cc(F)ccc2F)=NS(N2CCCC3CCCCC32)=N1 (stereo not drawn) [6.135] | 3 | 3 | 1 | 1 | 3 | 3
CCN(C1CC(C)CC(C)(C)C1)S1=NC(N)=NC(Oc2c(F)c(F)c(F)c(F)c2F)=N1 (stereo not drawn) [6.140] | 4 | 3 | 2 | 1 | 2 | 3
NC1=NS(N2CCc3ccccc3C2)=NC(Oc2c(F)c(F)c(F)c(F)c2F)=N1 (stereo not drawn) [6.145] | 4 | 2 | 1 | 1 | 3 | 3
CN(Cc1ccc(Cl)nc1)S1=NC(N)=NC(Oc2c(F)c(F)c(F)c(F)c2F)=N1 (stereo not drawn) [6.170] | 3 | 4 | 4 | 1 | 2 | 3
NC1=NS(N2CCc3ccccc3C2)=NC(Oc2c(F)c(F)cc(F)c2F)=N1 (stereo not drawn) [6.173] | 4 | 3 | 1 | 1 | 2 | 3
NC1=NS(N2CC3CCCC2CC3)=NC(Oc2c(F)c(F)c(F)c(F)c2F)=N1 (stereo not drawn) [6.185] | 4 | 4 | 1 | 1 | 1 | 1
CN(Cc1ccccc1)S1=NC(N)=NC(Oc2c(F)c(F)c(F)c(F)c2F)=N1 (stereo not drawn) [6.192] | 2 | 1 | 1 | 1 | 2 | 4
CC1CC(N(C)S2=NC(N)=NC(Oc3c(F)c(F)c(F)c(F)c3F)=N2)CC(C)(C)C1 (stereo not drawn) [6.194] | 7 | 5 | 2 | 2 | 2 | 4
NC1=NC(Oc2c(F)c(F)c(F)c(F)c2F)=NS(N2CCc3ccccc3CC2)=N1 (stereo not drawn) [6.200] | 4 | 1 | 1 | 1 | 2 | 2
NC1=NC(Oc2c(F)c(F)c(F)c(F)c2F)=NS(N2CCCCCC2)=N1 (stereo not drawn) [6.229] | 3 | 2 | 1 | 1 | 2 | 3
